The target of the experiment is beta-lactamase class D OXA-48 (Klebsiella pneumoniae, UniProt Q6XEC0). The class given is biochemical. To be noted: for Average [meropenem]: average of three replicates.
[1] abbreviates: second drug alone in ultrafiltrated serum at 10 times recommended blood concentration, […].
The mark [2] stands for this setting: second drug alone in ultrafiltrated serum at 10 times recommended blood concentration, result expressed as meropenem concentration, theoretically zero.
Where [3] appears, read: second drug alone in ultrafiltrated serum at 10 times recommended blood concentration, result expressed as meropenem concentration, theoretically zero, replicate 1.
The mark [4] stands for this setting: second drug alone in ultrafiltrated serum at 10 times recommended blood concentration, result expressed as meropenem concentration, theoretically zero, replicate 2.
The mark [5] stands for this setting: second drug alone in ultrafiltrated serum at 10 times recommended blood concentration, result expressed as meropenem concentration, theoretically zero, replicate 3.

Here are results for 13 molecules from patent US20220317138A1, “METHODS FOR DETERMINING THE CONCENTRATION OF A CARBAPENEM ANTIBIOTIC IN A BIOLOGICAL SAMPLE” (priority 2019, published 2022).

Read-outs that look alike come from different tables or passages of the source.

Consider `CCCC(CCC)C(=O)[O-].[Na+]` [Dapakine], for which the “[meropenem] (mg/L) Replicates 1” value was -0.10 mg/L, the “[meropenem] (mg/L) Replicates 2” value is -0.10 mg/L and the “[meropenem] (mg/L) Replicates 3” value is -0.09 mg/L. Further, the “Average [meropenem]” value under setting [1] was -0.09 mg/L.

Take `C[C@H]1C[C@@H]2[C@H]([C@@H](O)C[C@@]3(C)[C@H]2CC[C@]3(O)C(=O)COC(=O)CCC(=O)O)[C@@]2(C)C=CC(=O)C=C12` [Solu-Medrol]: the “Average [meropenem]” value under setting [2] was 0.01 mg/L. Also, the “[meropenem] (mg/L) Replicates 1” value under setting [3] is -0.01 mg/L. Also, the “[meropenem] (mg/L) Replicates 2” value under setting [4] turned out to be 0.02 mg/L. Further, the “[meropenem] (mg/L) Replicates 3” value under setting [5] is 0.01 mg/L.

As to `C[C@@H](c1ncncc1F)[C@](O)(Cn1cncn1)c1ccc(F)cc1F` [Voriconazole], the “Average [meropenem]” value under setting [2] was 0.01 mg/L. Also, the “[meropenem] (mg/L) Replicates 1” value under setting [3] is recorded as 0.00 mg/L. The “[meropenem] (mg/L) Replicates 2” value under setting [4] was -0.06 mg/L. Besides, under setting [5], the “[meropenem] (mg/L) Replicates 3” value is recorded as 0.10 mg/L.

As to protamine, the “[meropenem] (mg/L) Replicates 1” value is given as 0.64 mg/L, the “[meropenem] (mg/L) Replicates 2” value turned out to be 0.69 mg/L, the “[meropenem] (mg/L) Replicates 3” value is on record as 0.72 mg/L and the “interference with the method” value was “excepted for protamine”. In addition, the “Average [meropenem]” value under setting [1] amounted to 0.68 mg/L.

Regarding `OC(Cn1cncn1)(Cn1cncn1)c1ccc(F)cc1F` [Fluconazole], under setting [2], the “Average [meropenem]” value is listed as 0.07 mg/L. Further, the “[meropenem] (mg/L) Replicates 1” value under setting [3] is on record as 0.02 mg/L. Also, the “[meropenem] (mg/L) Replicates 2” value under setting [4] amounted to 0.10 mg/L. Besides, the “[meropenem] (mg/L) Replicates 3” value under setting [5] was 0.11 mg/L.

Consider `O=C1NC(=O)C(c2ccccc2)(c2ccccc2)N1` [Diphantoïne], for which the “[meropenem] (mg/L) Replicates 1” value was -0.15 mg/L, the “[meropenem] (mg/L) Replicates 2” value was -0.11 mg/L and the “[meropenem] (mg/L) Replicates 3” value came to 0.02 mg/L. Besides, under setting [1], the “Average [meropenem]” value was -0.08 mg/L.

Regarding `CN1C(=O)CN=C(c2ccccc2)c2cc(Cl)ccc21` [Diazepam], the “Average [meropenem]” value under setting [2] was found to be 0.03 mg/L. Also, under setting [3], the “[meropenem] (mg/L) Replicates 1” value was determined as 0.05 mg/L. Moreover, the “[meropenem] (mg/L) Replicates 2” value under setting [4] amounted to 0.04 mg/L. Moreover, the “[meropenem] (mg/L) Replicates 3” value under setting [5] came out at 0.01 mg/L.

For `CC(CCc1ccc(O)cc1)NCCc1ccc(O)c(O)c1` (centres unmarked) [Dobutrex], under setting [2], the “Average [meropenem]” value was -0.11 mg/L. In addition, the “[meropenem] (mg/L) Replicates 1” value under setting [3] is -0.07 mg/L. Under setting [4], the “[meropenem] (mg/L) Replicates 2” value is -0.11 mg/L. For the same molecule, the “[meropenem] (mg/L) Replicates 3” value under setting [5] was -0.14 mg/L.

As to `CCC1(CC)C(=O)NC(=S)NC1=O` [Thiobarbital], under setting [2], the “Average [meropenem]” value is given as 0.10 mg/L. Also, the “[meropenem] (mg/L) Replicates 1” value under setting [3] is recorded as 0.12 mg/L. Moreover, under setting [4], the “[meropenem] (mg/L) Replicates 2” value turned out to be 0.11 mg/L. The “[meropenem] (mg/L) Replicates 3” value under setting [5] is recorded as 0.09 mg/L.

In the case of `COc1ccnc(C[S+]([O-])c2nc3cc(OC(F)F)ccc3[nH]2)c1OC` (centres unmarked) [Pantomed], the “[meropenem] (mg/L) Replicates 1” value turned out to be 0.02 mg/L, the “[meropenem] (mg/L) Replicates 2” value is 0.01 mg/L and the “[meropenem] (mg/L) Replicates 3” value is -0.05 mg/L. In addition, under setting [1], the “Average [meropenem]” value is -0.01 mg/L.

For Actrapid, the “[meropenem] (mg/L) Replicates 1” value stood at 0.04 mg/L, the “[meropenem] (mg/L) Replicates 2” value was 0.04 mg/L and the “[meropenem] (mg/L) Replicates 3” value is 0.06 mg/L. Besides, under setting [1], the “Average [meropenem]” value worked out at 0.05 mg/L.

With `COc1ccc(C[C@@H]2c3cc(OC)c(OC)cc3CC[N@+]2(C)CCC(=O)OCCCCCOC(=O)CC[N@@+]2(C)CCc3cc(OC)c(OC)cc3[C@H]2Cc2ccc(OC)c(OC)c2)cc1OC` [Nimbex], the “Average [meropenem]” value under setting [2] was -0.03 mg/L. Under setting [3], the “[meropenem] (mg/L) Replicates 1” value amounted to 0.01 mg/L. Under setting [4], the “[meropenem] (mg/L) Replicates 2” value is -0.04 mg/L. The “[meropenem] (mg/L) Replicates 3” value under setting [5] was -0.08 mg/L.

`NCCc1ccc(O)c(O)c1` [Dopamine]: the “Average [meropenem]” value under setting [2] was -0.06 mg/L. Further, the “[meropenem] (mg/L) Replicates 1” value under setting [3] was -0.05 mg/L. Also, the “[meropenem] (mg/L) Replicates 2” value under setting [4] was -0.06 mg/L. The “[meropenem] (mg/L) Replicates 3” value under setting [5] is -0.07 mg/L.
